Results as given in patent US20210255193A1, “LYSINE REACTIVE PROBES AND USES THEREOF” (The Scripps Research Institute, priority 2017, published 2021).

Assays:
Assay in all cases: direct labeling of recombinantly expressed proteins by gel-based ABPP (WT vs lysine mutant)
Format in all cases: binding
[1] = molecular target: T1, FAH (Homo sapiens, UniProt P16930); details: FAH K241, KR mutant; 10 μM probe, 1 h
T1 construct: expressed in transfected cells; host or cells: HEK 293T
T1 sequence (P16930 1-419): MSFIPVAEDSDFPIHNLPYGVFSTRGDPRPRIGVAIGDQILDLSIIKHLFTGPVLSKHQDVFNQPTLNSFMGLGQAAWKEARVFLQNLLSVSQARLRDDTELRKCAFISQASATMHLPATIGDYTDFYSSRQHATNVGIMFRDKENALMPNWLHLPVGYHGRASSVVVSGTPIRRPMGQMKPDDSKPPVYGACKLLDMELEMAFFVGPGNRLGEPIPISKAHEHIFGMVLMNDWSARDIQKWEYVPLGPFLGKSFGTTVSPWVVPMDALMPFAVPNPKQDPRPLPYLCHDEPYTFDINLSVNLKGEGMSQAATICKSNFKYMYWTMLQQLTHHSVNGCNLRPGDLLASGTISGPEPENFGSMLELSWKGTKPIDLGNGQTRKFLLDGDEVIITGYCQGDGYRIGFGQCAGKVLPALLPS

[2] = molecular target: T2, GSTO1 (Homo sapiens, UniProt P78417); details: GSTO1 K57, KR mutant; 10 μM probe, 1 h
T2 construct: expressed in transfected cells; host or cells: HEK 293T
T2 sequence (P78417 1-241): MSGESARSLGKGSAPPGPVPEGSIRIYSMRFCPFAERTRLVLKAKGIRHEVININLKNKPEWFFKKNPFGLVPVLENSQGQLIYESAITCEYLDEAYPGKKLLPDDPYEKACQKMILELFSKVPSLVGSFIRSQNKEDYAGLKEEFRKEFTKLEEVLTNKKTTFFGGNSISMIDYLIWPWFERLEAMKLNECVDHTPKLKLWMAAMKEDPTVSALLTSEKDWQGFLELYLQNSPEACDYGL

[3] = molecular target: T3, PNPO (Homo sapiens, UniProt Q9NVS9); details: PNPO K100, KR mutant; 10 μM probe, 1 h
T3 construct: Flag; expressed in transfected cells; host or cells: HEK 293T, transient transfection, soluble lysate
T3 sequence (Q9NVS9 1-261): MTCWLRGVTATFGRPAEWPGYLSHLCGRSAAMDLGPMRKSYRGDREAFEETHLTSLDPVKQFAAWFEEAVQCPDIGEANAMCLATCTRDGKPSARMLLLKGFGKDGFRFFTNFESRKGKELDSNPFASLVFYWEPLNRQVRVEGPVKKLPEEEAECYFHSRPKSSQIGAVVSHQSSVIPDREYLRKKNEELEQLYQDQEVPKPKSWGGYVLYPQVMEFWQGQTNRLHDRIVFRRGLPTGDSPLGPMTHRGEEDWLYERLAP

[4] = molecular target: T4, TPMT (Homo sapiens, UniProt P51580); details: TPMT K32, KR mutant; 10 μM probe, 1 h
T4 construct: expressed in transfected cells; host or cells: HEK 293T
T4 sequence (P51580 1-245): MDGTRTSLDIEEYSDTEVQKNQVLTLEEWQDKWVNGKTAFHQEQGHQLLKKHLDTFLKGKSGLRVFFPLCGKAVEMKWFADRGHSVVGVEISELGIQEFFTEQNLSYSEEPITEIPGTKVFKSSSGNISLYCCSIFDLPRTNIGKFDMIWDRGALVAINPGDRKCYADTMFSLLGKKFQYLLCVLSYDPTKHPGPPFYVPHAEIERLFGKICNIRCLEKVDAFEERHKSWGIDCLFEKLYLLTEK

Q: For `Cc1cc(C)n2c1C=C1C=CC(CCC(=O)Oc3c(F)c(F)c(S(=O)(=O)[O-])c(F)c3F)=[N+]1[B-]2(F)F.[Na+]` [probe 18, reference compound], which “labeling of WT vs mutant protein by probe” value [1] is on record?
A: Its value is “PD (the WT labeled more than the mutant (>2x difference quantified))”.

Q: And the “labeling of WT vs mutant protein by probe” value [2]?
A: Its value is “ND (the WT did not label more than the mutant (<2x difference quantified))”.

Q: What about the “labeling of WT vs mutant protein by probe” value [3] of the same compound?
A: Its value is “PD (the WT labeled more than the mutant (>2x difference quantified))”.

Q: And the “labeling of WT vs mutant protein by probe” value [4]?
A: The value was “HD (the WT labeled more than the mutant (>4x difference quantified))”.

Q: Which results are given for `C#Cc1ccc(C(=O)Oc2c(F)c(F)cc(F)c2F)cc1` [probe 12, 2,3,5,6-Tetrafluorophenyl 4-ethynylbenzoate]?
A: labeling of WT vs mutant protein by probe [1]: PD (the WT labeled more than the mutant (>2x difference quantified)); labeling of WT vs mutant protein by probe [2]: ND (the WT did not label more than the mutant (<2x difference quantified)); labeling of WT vs mutant protein by probe [3]: PD (the WT labeled more than the mutant (>2x difference quantified)); labeling of WT vs mutant protein by probe [4]: ND (the WT did not label more than the mutant (<2x difference quantified))

Q: For `C#CCCC(=O)Oc1c(F)c(F)c(S(=O)(=O)[O-])c(F)c1F.[Na+]` [probe 1, reference compound], which “labeling of WT vs mutant protein by probe” value [1] is on record?
A: Its value is “ND (the WT did not label more than the mutant (<2x difference quantified))”.

Q: And the “labeling of WT vs mutant protein by probe” value [2]?
A: The value was “PD (the WT labeled more than the mutant (>2x difference quantified))”.

Q: What about the “labeling of WT vs mutant protein by probe” value [3] of the same compound?
A: The value was “HD (the WT labeled more than the mutant (>4x difference quantified))”.

Q: What about the “labeling of WT vs mutant protein by probe” value [4] of the same compound?
A: The value was “HD (the WT labeled more than the mutant (>4x difference quantified))”.

Q: With `C#CCCC(=O)Oc1c(F)c(F)c(F)c(F)c1F` [probe 6, Pentafluorophenyl 4-pentynoate] as the compound, how does the “labeling of WT vs mutant protein by probe” value [2] read?
A: The value was “ND (the WT did not label more than the mutant (<2x difference quantified))”.

Q: What about the “labeling of WT vs mutant protein by probe” value [3] of the same compound?
A: Its value is “PD (the WT labeled more than the mutant (>2x difference quantified))”.

Q: What about the “labeling of WT vs mutant protein by probe” value [4] of the same compound?
A: The value was “ND (the WT did not label more than the mutant (<2x difference quantified))”.

Q: Which results are given for `C#Cc1ccc(C(=O)Oc2c(F)c(F)c(F)c(F)c2F)cc1` [probe 13, Pentafluorophenyl 4-ethynylbenzoate]?
A: labeling of WT vs mutant protein by probe [2]: ND (the WT did not label more than the mutant (<2x difference quantified)); labeling of WT vs mutant protein by probe [3]: ND (the WT did not label more than the mutant (<2x difference quantified)); labeling of WT vs mutant protein by probe [4]: ND (the WT did not label more than the mutant (<2x difference quantified))
